Experimental data published in article PMC7418559, “Synthesis and SAR of Tetracyclic Inhibitors of Protein Kinase CK2 Derived from Furocarbazole W16” (Chemmedchem, 2020).
Like-named read-outs stand apart in the source and are kept apart here.

Legend:
[1] = target: T1, mutated CK2α’ ^C336S subunit (Homo sapiens, UniProt P19784, C336S); test: Capillary electrophoresis (CE) assay, enzyme inhibition of the mutated CK2α′ C336S subunit; type: biochemical; conditions: c=10 μM, CE assay, mean±SD of three experiments, n.s.=not significant; for inhibition at 10 µM: read-out: Inhibition (%) of CK2α’ ^C336S
T1 construct: His6 (N); made in house
T1 sequence (P19784 1-350 C336S): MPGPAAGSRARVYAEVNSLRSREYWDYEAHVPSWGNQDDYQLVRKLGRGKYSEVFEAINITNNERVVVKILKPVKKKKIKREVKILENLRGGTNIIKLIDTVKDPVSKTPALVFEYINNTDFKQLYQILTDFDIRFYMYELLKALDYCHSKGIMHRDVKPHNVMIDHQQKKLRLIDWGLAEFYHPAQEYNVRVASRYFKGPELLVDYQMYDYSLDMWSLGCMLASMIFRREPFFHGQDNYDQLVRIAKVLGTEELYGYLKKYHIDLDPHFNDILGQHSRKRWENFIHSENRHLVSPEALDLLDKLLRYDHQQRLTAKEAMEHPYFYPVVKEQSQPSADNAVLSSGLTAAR
Source text: (§1) In this assay, the decapeptide […], a known class I substrate suitable for assaying the kinase activity of both the CK2 holoenzyme and the catalytically active CK2 subunits,50, 58 was reacted with ATP in the presence of enzyme, which transfers a phosphate group to Ser7 of the decapeptide. Due to the additional negative charge of the phosphate group, the decapeptide and the phosphorylated decapeptide can be separated by CE. […] The data on the inhibition of the kinase activities of CK2α2β2, CK2α subunit and mutated CK2α’ ^C336S subunit are summarized in Table 1.
(§2) Enzymatic activities with or without inhibitors were determined for the holoenzyme (CK2α2β2), the CK2α subunit, and the mutated CK2α′ ^C336S subunit by a capillary electrophoresis assay as described before.59 For this purpose, CK2α as well as (CK2α2β2) holoenzyme were purified after recombinant expression in E. coli BL21(DE3) and purified according the protocol of Grankowski et al.62 The mutated CK2α′ ^C336S subunit was purified by Ni‐NTA affinity chromatography using an N‐terminally attached His6 tag. Successful purification was controlled by SDS‐PAGE. Enzymatic activity was determined in the presence of 60 μM ATP and 114 μM of the substrate peptide […]. For both CK2α subunits an assay buffer containing 100 mM NaCl instead of 60 mM NaCl as for the holoenzyme, and 20 mM MgCl2 instead of 10 mM MgCl2 was applied. For the holoenzyme, 1 μg was added, whereas for CK2α and the mutated CK2α′ ^C336S subunit 0.25 μg was added each. For each compound inhibition was determined three times independently at an initial concentration of 10 μM and the mean value and the standard deviation (SD) were calculated.

monomeric CK2α = test system: monomeric CK2α; parameters: method as in PMID 18553057; conditions: read-out: IC50, inhibition of the catalytic activity of monomeric CK2α; cited from earlier work
CK2α subunit = target: T2, CK2α subunit (Homo sapiens, UniProt P68400); test: Capillary electrophoresis (CE) assay, enzyme inhibition of the CK2α subunit; type: biochemical; conditions: for inhibition at 10 µM: read-out: Inhibition (%) of CK2α
T2 construct: made in house; host or cells: E. coli BL21(DE3)
Source text: as §1, §2

CK2α/CK2β interaction = test system: CK2α/CK2β interaction; parameters: method as in PMID 18553057; conditions: read-out: IC50, inhibition of CK2α/CK2β interaction (PPII); cited from earlier work
holoenzyme CK2α2β2 = target: T3, holoenzyme CK2α2β2 (Homo sapiens, UniProt P68400); test: Capillary electrophoresis (CE) assay, enzyme inhibition of the holoenzyme; type: biochemical; conditions: for inhibition at 10 µM: read-out: Inhibition (%) of CK2α2β2
T3 construct: made in house; host or cells: E. coli BL21(DE3)
Description: In this assay, the decapeptide […], a known class I substrate suitable for assaying the kinase activity of both the CK2 holoenzyme and the catalytically active CK2 subunits,50, 58 was reacted with ATP in the presence of enzyme, which transfers a phosphate group to Ser7 of the decapeptide. Due to the additional negative charge of the phosphate group, the decapeptide and the phosphorylated decapeptide can be separated by CE.
Enzymatic activities with or without inhibitors were determined for the holoenzyme (CK2α2β2), the CK2α subunit, and the mutated CK2α′ ^C336S subunit by a capillary electrophoresis assay as described before.59 For this purpose, CK2α as well as (CK2α2β2) holoenzyme were purified after recombinant expression in E. coli BL21(DE3) and purified according the protocol of Grankowski et al.62 The mutated CK2α′ ^C336S subunit was purified by Ni‐NTA affinity chromatography using an N‐terminally attached His6 tag. […] For both CK2α subunits an assay buffer containing 100 mM NaCl instead of 60 mM NaCl as for the holoenzyme, and 20 mM MgCl2 instead of 10 mM MgCl2 was applied. For the holoenzyme, 1 μg was added, whereas for CK2α and the mutated CK2α′ ^C336S subunit 0.25 μg was added each. For each compound inhibition was determined three times independently at an initial concentration of 10 μM and the mean value and the standard deviation (SD) were calculated.

CK2 = test system: CK2; parameters: method as in PMID 29759799; conditions: cited from earlier work
[2] = target: T4, CK2α/CK2β interaction (CK2α^1−335 / fluorescently labeled CK2β^1−193) (Homo sapiens, UniProt P68400)
T4 sequence (P68400 1-335): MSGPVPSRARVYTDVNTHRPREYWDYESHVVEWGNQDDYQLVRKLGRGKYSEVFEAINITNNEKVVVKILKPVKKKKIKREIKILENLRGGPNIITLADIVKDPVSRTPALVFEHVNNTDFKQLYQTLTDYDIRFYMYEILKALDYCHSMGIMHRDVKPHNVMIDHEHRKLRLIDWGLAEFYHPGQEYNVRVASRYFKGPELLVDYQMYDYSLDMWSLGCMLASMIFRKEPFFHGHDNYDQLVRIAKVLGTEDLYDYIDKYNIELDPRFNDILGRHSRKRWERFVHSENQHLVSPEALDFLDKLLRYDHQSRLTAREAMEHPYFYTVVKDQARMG

[3] = c=10 μM, CE assay, mean±SD of three experiments, n.s.=not significant

T2 sequence (P68400 whole entry): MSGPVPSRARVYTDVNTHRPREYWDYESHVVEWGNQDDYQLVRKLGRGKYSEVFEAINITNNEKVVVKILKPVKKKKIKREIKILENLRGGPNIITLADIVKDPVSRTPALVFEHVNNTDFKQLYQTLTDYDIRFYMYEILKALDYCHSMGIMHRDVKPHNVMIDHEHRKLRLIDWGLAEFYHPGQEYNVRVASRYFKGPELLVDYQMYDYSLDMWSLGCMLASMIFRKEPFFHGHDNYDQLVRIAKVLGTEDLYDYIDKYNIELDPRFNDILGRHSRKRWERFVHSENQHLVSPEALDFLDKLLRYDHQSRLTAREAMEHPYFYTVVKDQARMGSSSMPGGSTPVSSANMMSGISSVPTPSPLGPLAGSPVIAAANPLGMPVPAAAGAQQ
T3 sequence (P68400 whole entry): as above

COc1cc([C@H]2c3c([nH]c4ccccc34)[C@@H](C(=O)N3C(=O)OC[C@@H]3Cc3ccccc3)[C@H]3C(=O)OC(=O)[C@@H]23)cc(OC)c1OC [(+)‐3 a, (3aR,4S,10S,10aS)‐4‐{[(S)‐4‐Benzyl‐2‐oxo‐1,3‐oxazolidin‐3‐yl]carbonyl}‐10‐(3,4,5‐trimethoxyphenyl)‐4,5,10,10a‐tetrahydrofuro[3,4‐b]carbazole‐1,3(3aH)‐dione]
inhibition at 10 µM [1]: 85 ± 13% | IC50 (monomeric CK2α): 20 µM | inhibition at 10 µM (CK2α subunit): 76 ± 4% | IC50 (CK2α/CK2β interaction): […] | inhibition at 10 µM (holoenzyme CK2α2β2): 84 ± 5%

NCc1cc(Cl)cc(-c2cccc3[nH]ccc23)c1 [CAM187]
Inhibition of CK2 activity (CK2): did not significantly inhibit CK2 activity

COc1cc([C@@H]2c3c([nH]c4ccccc34)[C@H](C(=O)N3C(=O)OC[C@H]3Cc3ccccc3)[C@@H]3C(=O)NC(=O)[C@H]23)cc(OC)c1OC [(−)‐9 a]
Ki [2]: 3.6 ± 0.6 µM | Inhibition (%) of CK2α’ ^C336S [1]: n.s. | Inhibition (%) of CK2α (CK2α subunit; [3]): n.s. | Inhibition (%) of CK2α2β2 (holoenzyme CK2α2β2; [3]): n.s.

COc1cc([C@H]2c3c([nH]c4ccccc34)[C@@H](C(=O)N3C(=O)OC[C@@H]3Cc3ccccc3)[C@H]3C(=O)N(C)C(=O)[C@@H]23)cc(OC)c1OC [(+)‐10 a]
Ki [2]: 2.8 ± 0.9 µM | inhibition at 10 µM [1]: 53 ± 15% | inhibition at 10 µM (CK2α subunit; [3]): 41 ± 11% | inhibition at 10 µM (holoenzyme CK2α2β2; [3]): 26 ± 7%
